Converted amounts (≈) assume the structure as drawn. The source made the active and inactive calls. No cut-off for these calls is given here.

Series [1] addresses T1, Protein-glutamine gamma-glutamyltransferase (Homo sapiens, UniProt P21980).
T1 sequence (P21980 whole entry): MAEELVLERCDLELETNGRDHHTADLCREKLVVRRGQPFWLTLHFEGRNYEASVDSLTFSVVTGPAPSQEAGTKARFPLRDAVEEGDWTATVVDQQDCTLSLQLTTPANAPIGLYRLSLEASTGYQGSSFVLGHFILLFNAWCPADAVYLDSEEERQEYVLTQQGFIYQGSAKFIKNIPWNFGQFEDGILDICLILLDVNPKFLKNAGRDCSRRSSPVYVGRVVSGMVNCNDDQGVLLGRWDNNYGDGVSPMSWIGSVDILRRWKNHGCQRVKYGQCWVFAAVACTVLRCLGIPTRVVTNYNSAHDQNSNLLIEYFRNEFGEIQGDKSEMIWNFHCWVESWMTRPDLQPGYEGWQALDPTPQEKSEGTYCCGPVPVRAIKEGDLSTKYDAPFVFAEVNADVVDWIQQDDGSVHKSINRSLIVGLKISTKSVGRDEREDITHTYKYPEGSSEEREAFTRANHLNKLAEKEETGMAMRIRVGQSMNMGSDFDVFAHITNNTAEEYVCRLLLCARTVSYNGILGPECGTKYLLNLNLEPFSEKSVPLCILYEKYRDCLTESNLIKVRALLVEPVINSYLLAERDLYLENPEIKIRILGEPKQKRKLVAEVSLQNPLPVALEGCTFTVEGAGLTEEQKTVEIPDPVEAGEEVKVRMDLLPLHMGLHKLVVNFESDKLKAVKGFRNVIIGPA
In words: Inhibition of human TGase 2 using R-I-Cad/DMC as substrate preincubated for 5 mins followed by substrate addition measured at 30 secs interval over 900 secs by fluorescence anisotropy assay. For orientation: Polarisation of emitted light reports the rotation of a fluorescent probe.

The nature of series [2]: Inhibition of guinea pig TGase 2 using F-Cad/DMC as substrate preincubated for 30 mins followed by substrate addition measured at 30 secs interval over 900 secs by fluorescence anisotropy assay. Also on record: species or system Cavia porcellus.
Series [3] deals with T1, Protein-glutamine gamma-glutamyltransferase. The series can be described thus: Inhibition of TGase 2 in human A375 cells using R-I-Cad/DMC as substrate preincubated for 5 mins followed by substrate addition measured at 30 secs interval over 900 secs by fluorescence anisotropy assay. The class given is cell-based.
Series [4] in a line: n-octanol-phosphate buffer partition coefficient, log D of compound at pH 7.4 by 19F NMR analysis. The class given is physicochemical.
Series [5] is described as follows: Membrane retention, RM of the compound. Format: physicochemical.
Series [6] in a line: Chromatographic hydrophobicity index in immobilized artificial membrane at pH 7.4 by HPLC method. The class given is ADME, cell membranes.
Series [7] can be described thus: Thermodynamic solubility of the compound in 0.01 M phosphate buffer at pH 7.4 at 22 degC after 26 hrs by UPLC-DAD-MS analysis. Conditions: read-out: Therm_solubility. Format: physicochemical.
Series [8] is described as follows: Metabolic stability in mouse liver microsomes assessed as parent compound remaining at 100 uM measured after 60 mins by HPLC-UV analysis. Format: ADME, microsome. On the technique in general: Liver microsomes are a subcellular fraction often used to study metabolism.
In series [9] the target is T1, Protein-glutamine gamma-glutamyltransferase. In words: Reversible inhibition of human TGase 2 using Z-Glu(HMC)-Gly-OH as substrate measured at 20 secs interval over 900 secs by fluorimetric assay.
For series [10], the species on record is Homo sapiens. The series can be described thus: Selectivity index, ratio of Kinact/Ki for human TGase 2 to Kinact/Ki for human TGase 1.
The species entered for series [11] is Homo sapiens. In words: Selectivity index, ratio of Kinact/Ki for human TGase 2 to Kinact/Ki for human TGase 3.
The species named for series [12] is Homo sapiens. In words: Selectivity index, ratio of Kinact/Ki for human TGase 2 to Kinact/Ki for human TGase 6.
The species entered for series [13] is Homo sapiens. The series can be described thus: Selectivity index, ratio of Kinact/Ki for human TGase 2 to Kinact/Ki for human Factor 13a.
The nature of series [14]: Drug metabolism in mouse liver microsomes assessed as metabolic transformation at pyridylpiperazine moiety at 100 uM measured after 60 mins by EPI-mass spectroscopy. The conditions noted are these: 1 h. Format: ADME, microsome.
A short description of a further series: in vitro. Conditions: PAMPA.
A short description of series [15]: Thermodynamic solubility of the compound in 0.01 M phosphate buffer at pH 7.4 at 22 degC after 39 hrs by UPLC-DAD-MS analysis. The class given is physicochemical. Conditions: read-out: Therm_solubility.
In series [16] the target is T2, Protein-glutamine gamma-glutamyltransferase (Homo sapiens) (UniProt P21980).
T2 sequence (whole entry): T1 sequence (P21980 whole entry)
The series can be described thus: Irreversible inhibition of human TGase 2 using Z-Glu(HMC)-Gly-OH as substrate up to 25 uM measured at 20 secs interval over 900 secs by fluorimetric assay.

Series [17] addresses T1, Protein-glutamine gamma-glutamyltransferase. The series can be described thus: Irreversible inhibition of human TGase 2 using Z-Glu(HMC)-Gly-OH as substrate measured at 20 secs interval over 900 secs by fluorimetric assay.
Series [18] has as its target T2, Protein-glutamine gamma-glutamyltransferase (Homo sapiens). The series can be described thus: Inhibition of human TGase 2 assessed as enzyme activity factor using R-I-Cad/DMC as substrate at 10 to 240 nM preincubated for 40 mins followed by substrate addition measured at 30 secs interval over 900 secs by fluorescence anisotropy assay. Also on record: scale not given: the % may be the effect or the level left.

For series [19] the target is unchanged. In words: Inhibition of human TGase 2 assessed as enzyme activity factor using Z-Glu(HMC)-Gly-OH as substrate at 5 to 100 nM preincubated for 40 mins followed by substrate addition measured over 300 secs by fluorimetric assay. Also on record: scale not given: the % may be the effect or the level left.
For another series, the species on record is Cavia porcellus. The series can be described thus: Irreversible inhibition of guinea pig TGase 2 using F-Cad/DMC as substrate at 30 uM preincubated for 30 mins followed by 1:100 dilution of compound-enzyme pre-incubated mixture at 30 secs interval over 900 secs by fluorescence anisotropy assay.

Description for in vitro: Effective permeability of the compound by PAMPA assay

Usually IC50 stands for the concentration that inhibits the measured activity by half. The term logD denotes the decadic logarithm of the distribution of all forms, ionised or not, between an organic phase and buffer at a given pH. In general, Papp refers to a coefficient for how fast a substance crosses the barrier. As for `C=CC(=O)NCCCC[C@H](NC(=O)Cc1ccccc1)C(=O)N1CCN(c2cccc(F)n2)CC1`, the IC50 in series [1] was 0.11 µM; in series [2] it was 0.2 µM; in series [3], 1.1 µM. Moreover, the logD in series [4] came to 2.1. In [5], the Rm worked out at 14%. In [6], this molecule returned a CHI of 31.8. Also, the solubility thermodynamic at 26 h in series [7] was 645 µM (≈ 311 µg/mL). Moreover, in [8] (microsomes, 1 h, 100 µM), the Stability result is “Unstable”. In [9], this molecule showed a Ki of 6.28 µM. Moreover, the Selectivity Index in the series listed under Homo sapiens [10], in the series listed under Homo sapiens [11], in the series listed under Homo sapiens [12] and in the series listed under Homo sapiens [13] was 275 to 1920 in each case. In [14], the Drug metabolism entry is listed as “Metabolite_Detected”. The molecule further yielded a Papp in the series “in vitro” of 13.3 ×10⁻⁶ cm/s.

As for `C=CC(=O)NCCCC[C@H](NC(=O)Cc1ccccc1)C(=O)N1CCN(c2cccc([N+](=O)[O-])n2)CC1`, the results for the IC50 in [1], in [2] and in series [3] were 0.1 µM, 0.12 µM and 0.4 µM, respectively. Besides, the Rm in [5] was determined as 10%. Further, the CHI in series [6] was found to be 30.7. Further, the solubility thermodynamic at 39 h in [15] was 452 µM (≈ 230 µg/mL). In series [16], the inhibition result was “Active”. The molecule further had a Ki in [9] of 2.26 µM. The Selectivity Index in the series listed under Homo sapiens [10], in the series filed under Homo sapiens [11], in the series listed under Homo sapiens [12] and in the series listed under Homo sapiens [13] was 275 to 1920 in each case. Also, the Papp in the series “in vitro” stood at 9.16 ×10⁻⁶ cm/s.

In [17], `C=CC(=O)NCCCC[C@H](NC(=O)Cc1ccccc1)C(=O)N1CCN(c2ccc([N+](=O)[O-])nc2)CC1` yielded a Ki of 2.45 µM. For the same molecule, the IC50 in [1] was 0.09 µM; in series [2], 0.15 µM. Further, the Activity in [18] came out at 80%; in [19], 74.4%.

Take `C=CC(=O)NCCCC[C@H](NC(=O)Cc1ccccc1)C(=O)N1CCN(c2cccc(C)n2)CC1`: the half-inhibitory concentration (IC50) was found to be 0.31 µM in [1], 0.27 µM in series [2] and 0.79 µM in series [3]. Moreover, the Rm in [5] is listed as -1%. The CHI in series [6] is recorded as 29.4. Further, the inhibition entry in the series filed under Cavia porcellus is “Active”. Further, the remaining at 1 h, 100 µM in series [8] (liver microsomes, read-out: Stability) was 62%. The molecule further had a Ki in series [9] of 5.73 µM. This molecule also displayed a Papp in the series “in vitro” of 8.77 ×10⁻⁶ cm/s.

The values above are taken from ChEMBL document CHEMBL4219231, “Nε-Acryloyllysine Piperazides as Irreversible Inhibitors of Transglutaminase 2: Synthesis, Structure-Activity Relationships, and Pharmacokinetic Profiling” (J Med Chem, 2018).
